Measurements taken from patent publication US20240082228A1, “SARS-COV-2 THERAPEUTICS” (priority 2021, published 2024).
Values joined by “and” are separate entries in the source; they are usually repeats but may differ in a detail not shown here. Identical values can stand only once. Like-named read-outs stand apart in the source and are kept apart here.

Columns and labels:
HEK293T-ACE2 cells = details: up to 10 mM compound
SARS-CoV-2 [1] = format: cell-based; details: HEK293T cells stably expressing ACE2
GABAA receptors = details: cited from earlier work
[2] = biological target: benzodiazepine binding site of human GABAA receptors containing either an α1, α2, α3 or α5 subunit; details: read-out: affinity; cited from earlier work
[3] = for Average Cell Number (1 uM) / Cell Number (1 uM) / Normalized Cell Number (1 uM): compound at 1 uM; for Average Cell Number (1 uM) / Average Cell Number (5 uM): average of normalized cell number, n=3, relative to DMSO; for Cell Number (1 uM) / Normalized Cell Number (1 uM) / Cell Number (5 uM) / Normalized Cell Number (5 uM): single replicate; for Cell Number (1 uM) / Cell Number (5 uM): raw cell count; for Normalized Cell Number (1 uM) / Normalized Cell Number (5 uM): relative to negative control DMSO; for Average Cell Number (5 uM) / Cell Number (5 uM) / Normalized Cell Number (5 uM): compound at 5 uM
SARS-CoV-2 [4] = assay: microbe, parasite or virus in culture; format: cell-based; details: for % Infection (1 uM) / % Infection (5 uM): single replicate of triplicate; for Normalized Infection (1 uM) / log2FC Infection (1 uM) / Normalized Infection (5 uM) / log2FC Infection (5 uM): single replicate, relative to negative control DMSO; for HIT: overall, 1 or 5 uM

Compound | cytotoxicity (HEK293T-ACE2 cells) | antiviral activity (SARS-CoV-2 [1]) | Toxic (1 uM) [3] | Toxic (5 uM) [3] | Average Cell Number (1 uM) [3] | Cell Number (1 uM) [3] | Normalized Cell Number (1 uM) [3] | Average Cell Number (5 uM) [3] | Cell Number (5 uM) [3] | Normalized Cell Number (5 uM) [3] | Average Infection (1 uM) (SARS-CoV-2 [4]) | Average Infection (5 uM) (SARS-CoV-2 [4]) | HIT (2 Std, 1 uM) (SARS-CoV-2 [4]; 1 uM) | % Infection (1 uM) (SARS-CoV-2 [4]; 1 uM) | Normalized Infection (1 uM) (SARS-CoV-2 [4]; 1 uM) | log2FC Infection (1 uM) (SARS-CoV-2 [4]; 1 uM) | % Infection (5 uM) (SARS-CoV-2 [4]; 5 uM) | Normalized Infection (5 uM) (SARS-CoV-2 [4]; 5 uM) | log2FC Infection (5 uM) (SARS-CoV-2 [4]; 5 uM) | HIT (SARS-CoV-2 [4]) | other results
CN[C@@H](C)C(=O)N[C@H](C(=O)N1CCC[C@H]1C(=O)N[C@H]1c2ccccc2C[C@H]1OCC#CC#CCO[C@@H]1Cc2ccccc2[C@@H]1NC(=O)[C@@H]1CCCN1C(=O)[C@@H](NC(=O)[C@H](C)NC)C1CCCCC1)C1CCCCC1 [AZD5582] | no observable cytotoxicity | excellent activity | – | – | – | – | – | – | – | – | – | – | – | – | – | – | – | – | – | – | –
CN[C@@H](C)C(=O)N[C@H]1CCS[C@H]2CC(C)(C)[C@@H](C(=O)N[C@H]3c4ccccc4C[C@H]3OCC#CC#CCO[C@@H]3Cc4ccccc4[C@@H]3NC(=O)[C@H]3N4C(=O)[C@@H](NC(=O)[C@H](C)NC)CCS[C@H]4CC3(C)C)N2C1=O [Ciapavir] | no observable cytotoxicity | excellent activity | – | – | – | – | – | – | – | – | – | – | – | – | – | – | – | – | – | – | –
CC(C)CCC(=O)CC1c2ccccc2C(=O)N1c1ccc2ccc(Cl)nc2n1 (centres unmarked) [Pagoclone] | – | – | – | – | – | – | – | – | – | – | – | – | – | – | – | – | – | – | – | – | efficacy at α1-, α2- and α5-containing GABAA receptors (GABAA receptors; α1-, α2- and α5-containing): partial agonist; efficacy at receptors containing an α3 subunit (GABAA receptors; α3 subunit): full agonist; Ki [2]: 0.7 to 9.1 nM
cefonicid | – | – | 0 (non-toxic (Normalized Cell number>0.65) | 0 (non-toxic (Normalized Cell number>0.65) | 0.9122 | 5339 and 5337 and 5361 | 0.9111 and 0.9108 and 0.9148 | 0.9876 | 5781 (2×) and 5996 | 0.9755 (2×) and 1.012 | −0.4929 | 0.04523 | HIT | 19.07% and 19.19% and 17.78% | 0.7259 and 0.7305 and 0.6768 | −0.4622 and −0.4531 and −0.5633 | 16.97% and 13.67% and 17.29% | 1.102 and 0.8875 and 1.123 | 0.1402 and −0.1722 and 0.1676 | Yes | –
lonafarnib | – | – | 0 (non-toxic (Normalized Cell number>0.65) | – | 0.6561 | 3801 and 4072 and 3662 | 0.6486 and 0.6949 and 0.6249 | 0.6416 | 3696 and 3879 and 3831 | 0.6546 and 0.6465 | −0.6667 | −1.3 | HIT | 17.44% and 15.37% | 0.6641 and 0.5853 | −0.5906 and −0.7727 | 6.304% and 5.672% and 6.839% | 0.4094 and 0.3683 and 0.4442 | −1.288 and −1.441 and −1.171 | Yes | HIT (2 Stdv, 5 uM) (SARS-CoV-2 [4]; 5 uM): HIT
osanetant | – | – | 0 (non-toxic (Normalized Cell number>0.65) | 0 (non-toxic (Normalized Cell number>0.65) | 0.6882 | 4045 and 3932 and 4122 | 0.6903 and 0.671 and 0.7034 | 0.7783 | 4466 and 4973 and 4398 | 0.7536 and 0.8392 and 0.7421 | – | – | HIT | 13.75% and 14.37% and 16.0359% | 0.5233 and 0.547 and 0.6105 | −0.9343 and −0.8703 and −0.7119 | 0.9628% and 1.307% and 0.7276% | 0.06253 and 0.08489 and 0.04725 | −3.999 and −3.558 and −4.403 | Yes | Average Infection (1 uM) (SARS-CoV-2 [4]; 1 uM, average log2FC infection (n=3) relative to DMSO): −0.8388; HIT (2 Stdv, 5 uM) (SARS-CoV-2 [4]; 5 uM): HIT; Average Infection (5 uM) (SARS-CoV-2 [4]; 5 uM, average log2FC infection (n=3) relative to DMSO): −3.987
